Results on eleven molecules are retold here after ChEMBL document CHEMBL3244408, “Synthesis and analgetic activity of some benzomorphan analogues” (1978).

The assay deals with Mus musculus. The experiment in a line: Analgetic activity in sc dosed albino DD mouse by tail pressure stimuli method. The class given is functional.
As for `Br.CN1CC2CC1Cc1ccc(O)cc12` (stereo unspecified), the 50% effect level (ED50) was put at a dose of 43 mg/kg.

`CC(O)C(=O)O.CN1CC2Cc3ccc(O)cc3C1C2` (stereo unspecified) showed an ED50 of 29.1 mg/kg.

`CN1CCC2Cc3ccc(O)cc3C1C2` (stereo unspecified) displayed an ED50 of 17.2 mg/kg.

In turn, `CN1CCCC2Cc3ccc(O)cc3C1C2.Cl.O` (stereo unspecified) gave an ED50 of 15 mg/kg.

`Br.CN1CCCC2(C)CC1Cc1ccc(O)cc12` (stereo unspecified) registered a median effective dose (ED50) of 4.1 mg/kg.

For the molecule `Br.C[C@@H]1C2Cc3ccc(O)cc3C1(C)CCN(C)C2` (stereo partly specified), the ED50 worked out at 1 mg/kg.

`Br.CN1CCC2Cc3ccc(O)cc3C(C2)C1` (stereo unspecified) registered an ED50 of 38.8 mg/kg.

`Br.CN1CC2Cc3ccc(O)cc3C(C)(C2)C1` (stereo unspecified): the ED50 worked out at 8.4 mg/kg.

Take `CC1NCC2Cc3ccc(O)cc3C1C2` (stereo unspecified): the 50% effect level (ED50) was put at a dose of 4.5 mg/kg.

Molecule `COc1ccc2c3c1O[C@H]1[C@@H](O)C=C[C@H]4[C@@H](C2)N(C)CC[C@@]341.COc1ccc2c3c1O[C@H]1[C@@H](O)C=C[C@H]4[C@@H](C2)N(C)CC[C@@]341.O.O=P(O)(O)O.O=P(O)(O)O` [CODEINE PHOSPHATE] returned an ED50 of 9.2 mg/kg.

As to `CN1CC[C@]23c4c5ccc(O)c4O[C@H]2[C@@H](O)C=C[C@H]3[C@H]1C5.Cl` [MORPHINE HYDROCHLORIDE], the 50% effect level (ED50) was put at a dose of 1.2 mg/kg.

A word on the ED50: it is the midpoint of the dose-response relation.
